Measured values published in patent US8163702B2, “Treatment of melanoma” (SciClone Pharmaceuticals, Inc., priority 2006, dated 2012).
Where “and” joins values, the source holds several entries; their conditions need not be identical. Equal values may be shown once.

Tested on: murine B16 melanoma
Experiment: Antitumor effect in murine B16 melanoma model, tumor size and tumor weight (Example 2)
Type: in vivo, C57BL/6 mice
Conditions: for Tumor volumes / Tumor measurements L / Tumor measurements W: Day 12; for IR (tumor volume inhibition rate) / Tumor Volume (Mean ± SD) / Tumor volumes (cm^3) on Day 15 / Tumor measurements (cm) on Day 15, L / Tumor measurements (cm) on Day 15, W: Day 15; for IR (inhibition rate of tumor weight) / Tumor Weight (Mean ± SD) / Tumor weights (g) on Day 17: Day 17; for Tumor volumes (cm^3) on Day 15: Length × Width × Width/2; for Tumor volumes (cm^3) on Day 15 / Tumor measurements (cm) on Day 15, L / Tumor measurements (cm) on Day 15, W / Tumor weights (g) on Day 17: individual animals F1-F5, M1-M5
Procedure: As per aseptic tissue culture procedures, one vial of B16 melanoma cells (supplied by Cell Culture Center of CAMS) was thawed and centrifuged at 1000 rpm, 20-25° C. for 5 minutes. The cell pellets were suspended in 0.1-0.5 mL normal saline (NS) and subcutaneously injected into the right axilla of each mouse (approximately 1×10^6 cells/mouse). When the tumor diameter was 1 cm approximately (measured by vernier caliper), the animals were euthanized with CO2 asphyxiation and the tumor was excised. Tumor cells were suspended in normal saline as previously described and the cell adaptation cycle was repeated once.
On Day 0, 1×10^6 B16 cells in a volume of 0.1 mL normal saline were subcutaneously injected into the right axillary area of the mouse. The day of tumor inoculation was defined as Day 0.
Dosing was initiated on Day 1.
Observations were recorded daily for mortality and moribundity. […] The tumors were excised, separated, and weighed.
Tumor volume was calculated using the following formula: Tumor Volume=Length×Width×Width/2 Tumor volume inhibition rate (IR) was calculated according to the formula: IR(TV)=(TVvehicle−TVdrug treated)/TVvehicle×100% TV is the tumor volume on the day of measurement.
The antitumor effect of the test article was also evaluated by tumor weight. The tumor weight of each mouse was recorded after euthanasia, and the inhibition rate of tumor weight was calculated according to the formula: IR(TW)=(Tumor weightvehicle−Tumor weightdrug treated)/Tumor weightvehicle×100%

[1] = SCV-07 0.01 mg/kg (Group 3), 0.01 mg/kg, female animals
[2] = SCV-07 0.01 mg/kg (Group 3), 0.01 mg/kg, male animals
[3] = SCV-07 0.01 mg/kg (Group 3), 0.01 mg/kg
[4] = SCV-07 0.1 mg/kg (Group 4), 0.1 mg/kg, female animals
[5] = SCV-07 0.1 mg/kg (Group 4), 0.1 mg/kg, male animals
[6] = SCV-07 0.1 mg/kg (Group 4), 0.1 mg/kg
[7] = SCV-07 1.0 mg/kg (Group 5), 1 mg/kg, female animals
[8] = SCV-07 1.0 mg/kg (Group 5), 1 mg/kg, male animals
[9] = SCV-07 1.0 mg/kg (Group 5), 1 mg/kg
[10] = SCV-07 5.0 mg/kg (Group 6), 5 mg/kg, female animals
[11] = SCV-07 5.0 mg/kg (Group 6), 5 mg/kg, male animals
[12] = SCV-07 5.0 mg/kg (Group 6), 5 mg/kg

N[C@H](CCC(=O)N[C@@H](Cc1c[nH]c2ccccc12)C(=O)O)C(=O)O [SCV-07, γ-D-glutamyl-L-tryptophan]
Tumor volumes (mouse M3, SCV-07 0.1 mg/kg sc): 0.67 cm^3 | Tumor measurements L (mouse M3, SCV-07 1.0 mg/kg sc): 0.7 cm | Tumor measurements W (mouse M3, SCV-07 1.0 mg/kg sc): 0.7 cm | Tumor volumes (mouse M3, SCV-07 1.0 mg/kg sc): 0.17 cm^3 | Tumor measurements L (mouse M3, SCV-07 5.0 mg/kg sc): 0.9 cm | Tumor measurements W (mouse M3, SCV-07 5.0 mg/kg sc): 0.9 cm | Tumor volumes (mouse M3, SCV-07 5.0 mg/kg sc): 0.36 cm^3 | Tumor measurements L (mouse M4, SCV-07 0.01 mg/kg sc): 1.0 cm | Tumor measurements W (mouse M4, SCV-07 0.01 mg/kg sc): 1.0 cm | Tumor volumes (mouse M4, SCV-07 0.01 mg/kg sc): 0.50 cm^3 | Tumor measurements L (mouse M4, SCV-07 0.1 mg/kg sc): 1.0 cm | Tumor measurements W (mouse M4, SCV-07 0.1 mg/kg sc): 0.9 cm | Tumor volumes (mouse M4, SCV-07 0.1 mg/kg sc): 0.41 cm^3 | Tumor measurements L (mouse M4, SCV-07 1.0 mg/kg sc): 1.0 cm | Tumor measurements W (mouse M4, SCV-07 1.0 mg/kg sc): 0.7 cm | Tumor volumes (mouse M4, SCV-07 1.0 mg/kg sc): 0.25 cm^3 | Tumor measurements L (mouse M4, SCV-07 5.0 mg/kg sc): 1.1 cm | Tumor measurements W (mouse M4, SCV-07 5.0 mg/kg sc): 1.1 cm | Tumor volumes (mouse M4, SCV-07 5.0 mg/kg sc): 0.67 cm^3 | Tumor measurements L (mouse M5, SCV-07 0.01 mg/kg sc): 1.1 cm | Tumor measurements W (mouse M5, SCV-07 0.01 mg/kg sc): 1.0 cm | Tumor volumes (mouse M5, SCV-07 0.01 mg/kg sc): 0.55 cm^3 | Tumor measurements L (mouse M5, SCV-07 0.1 mg/kg sc): 0.9 cm | Tumor measurements W (mouse M5, SCV-07 0.1 mg/kg sc): 0.9 cm | Tumor volumes (mouse M5, SCV-07 0.1 mg/kg sc): 0.36 cm^3 | Tumor measurements L (mouse M5, SCV-07 1.0 mg/kg sc): 0.8 cm | Tumor measurements W (mouse M5, SCV-07 1.0 mg/kg sc): 0.7 cm | Tumor volumes (mouse M5, SCV-07 1.0 mg/kg sc): 0.20 cm^3 | IR (tumor volume inhibition rate) (SCV-07 0.01 mg/kg/day sc): 15.3% | Tumor Volume (Mean ± SD) (SCV-07 0.01 mg/kg/day sc): 1.642 ± 0.549 cm^3 | IR (tumor volume inhibition rate) (SCV-07 0.1 mg/kg/day sc): 7.9% | Tumor Volume (Mean ± SD) (SCV-07 0.1 mg/kg/day sc): 1.786 ± 0.524 cm^3 | IR (tumor volume inhibition rate) (SCV-07 1.0 mg/kg/day sc): 16.5% | Tumor Volume (Mean ± SD) (SCV-07 1.0 mg/kg/day sc): 1.617 ± 0.274 cm^3 | IR (tumor volume inhibition rate) (SCV-07 5.0 mg/kg/day sc): 30.2% | Tumor Volume (Mean ± SD) (SCV-07 5.0 mg/kg/day sc): 1.353 ± 0.591 cm^3 | IR (inhibition rate of tumor weight) (SCV-07 0.01 mg/kg/day sc): 27.5% | Tumor Weight (Mean ± SD) (SCV-07 0.01 mg/kg/day sc): 2.77 ± 0.88 g | IR (inhibition rate of tumor weight) (SCV-07 0.1 mg/kg/day sc): 5.8% | Tumor Weight (Mean ± SD) (SCV-07 0.1 mg/kg/day sc): 3.59 ± 0.62 g | IR (inhibition rate of tumor weight) (SCV-07 1.0 mg/kg/day sc): 23.5% | Tumor Weight (Mean ± SD) (SCV-07 1.0 mg/kg/day sc): 2.92 ± 0.55 g | IR (inhibition rate of tumor weight) (SCV-07 5.0 mg/kg/day sc): 30.8% | Tumor Weight (Mean ± SD) (SCV-07 5.0 mg/kg/day sc): 2.64 ± 1.14 g | Tumor volumes (cm^3) on Day 15 [1]: 1.37 cm^3 and 1.69 cm^3 (3×) and 1.47 cm^3 | Tumor volumes (cm^3) on Day 15 [2]: 1.57 cm^3 and 1.69 cm^3 and 3.18 cm^3 and 1.47 cm^3 and 2.05 cm^3 | Tumor measurements (cm) on Day 15, L [3]: 1.5 cm and 1.8 cm (3×) and 1.4 cm (5×) and 1.3 cm | Tumor measurements (cm) on Day 15, W [3]: 1.5 cm (3×) and 1.4 cm (4×) and 1.3 cm (2×) and 1.8 cm | Tumor weights (g) on Day 17 [1]: 1.55 g and 2.04 g and 2.24 g and 3.71 g and 3.21 g | Tumor weights (g) on Day 17 [2]: 2.77 g and 2.80 g and 4.57 g and 2.29 g and 2.50 g | Tumor volumes (cm^3) on Day 15 [4]: 1.18 cm^3 (2×) and 1.69 cm^3 (2×) and 1.80 cm^3 | Tumor volumes (cm^3) on Day 15 [5]: 1.69 cm^3 (2×) and 1.77 cm^3 and 1.44 cm^3 and 2.05 cm^3 | Tumor measurements (cm) on Day 15, L [6]: 1.5 cm (6×) and 2.2 cm and 1.6 cm (2×) and 1.4 cm | Tumor measurements (cm) on Day 15, W [6]: 1.4 cm (4×) and 1.7 cm and 1.6 cm and 1.5 cm (4×) | Tumor weights (g) on Day 17 [4]: 2.46 g and 4.08 g and 4.03 g and 3.93 g and 3.52 g | Tumor weights (g) on Day 17 [5]: 3.10 g and 3.73 g and 4.47 g and 2.86 g and 3.74 g | Tumor volumes (cm^3) on Day 15 [7]: 1.10 cm^3 and 1.37 cm^3 and 1.80 cm^3 and 1.35 cm^3 and 1.57 cm^3 | Tumor volumes (cm^3) on Day 15 [8]: 1.47 cm^3 (2×) and 2.30 cm^3 and 1.10 cm^3 | Tumor measurements (cm) on Day 15, L [9]: 1.5 cm (3×) and 1.7 cm and 1.6 cm (2×) and 2 cm and 1.4 cm (2×) and 2.1 cm | Tumor measurements (cm) on Day 15, W [9]: 1.5 cm (4×) and 1.3 cm (5×) and 1.6 cm | Tumor weights (g) on Day 17 [7]: 2.69 g and 2.67 g and 4.06 g and 2.66 g and 3.25 g | Tumor weights (g) on Day 17 [8]: 3.58 g and 2.89 g and 2.25 g and 2.55 g and 2.58 g | Tumor volumes (cm^3) on Day 15 [10]: 1.91 cm^3 and 2.56 cm^3 and 1.69 cm^3 and 2.03 cm^3 and 1.57 cm^3 | Tumor volumes (cm^3) on Day 15 [11]: 1.37 cm^3 and 2.05 cm^3 (2×) and 2.03 cm^3 and 2.14 cm^3 | Tumor measurements (cm) on Day 15, L [12]: 1.6 cm (3×) and 1.5 cm (2×) and 1.8 cm and 1.3 cm (2×) and 1.4 cm | Tumor measurements (cm) on Day 15, W [12]: 1.4 cm (4×) and 1.6 cm and 1.3 cm (3×) and 1.5 cm | Tumor weights (g) on Day 17 [10]: 1.94 g and 3.15 g and 2.97 g and 2.80 g and 2.85 g | Tumor weights (g) on Day 17 [11]: 4.30 g and 0.15 g and 2.45 g and 3.78 g and 2.02 g | B16 melanoma tumor growth (SCV-07 0.01, 1.0 and 5.0 mg/kg/day sc for 14 days): significantly reduced
